Laboratory results: patent publication US20200085776A1, “Methods of Reducing C-Reactive Protein and/or Treating Cardiovascular Disease” (CARDAX, INC., priority 2018, published 2020)
Where two headings read alike, the source gives them in different places.

Test: Astaxanthin levels in plasma (PK), CHASE clinical study
Assay type: in vivo, human
Details: for concentration at 12 week: human, oral
Excerpt: Blood samples shall be collected for astaxanthin analysis at V2, V4, V6, and V8.
The approximate time of the most recent dose prior to PK sampling shall be documented. PK sampling is sparse, sample acquisition in relationship to the most recent dose will vary, and formal PK calculations (e.g., Tmax, Cmax, T1/2, AUC) are not possible from the collections scheduled. Analysis will consist of a tabular listing and comparison by treatment group with calculation of the mean, median, standard deviation, maximum, and minimum at the nominal visits. Sub-analysis by subject demographic and clinical characteristics (e.g., gender, age, weight, and smoking status) may be performed at the discretion of the Sponsor.
PK samples will be collected into a 6.0 mL K2EDTA tube, gently inverted sufficient times to mix the sample and anticoagulant, and placed in an ice bath for 15 minutes.
The blood samples will be centrifuged at 3500 rpm for ten minutes at room temperature for 10 minutes. Any hemolyzed or clotted samples will be documented in the study data.
All resultant plasma will be split into two approximately equal aliquots and frozen at −60 to −90° C. Samples may be initially placed on dry ice prior to being stored in the appropriate freezer.

[1] = Group X 12 mg BID, V2 baseline pre-dose, BQL (less than 9.77 ng/mL) treated as 4.885
[2] = Group Z 48 mg BID, V2 baseline pre-dose, BQL (less than 9.77 ng/mL) treated as 4.885

For `CC1=C(/C=C/C(C)=C/C=C/C(C)=C/C=C/C=C(C)/C=C/C=C(C)/C=C/C2=C(C)C(=O)C(O)CC2(C)C)C(C)(C)CC(O)C1=O` (stereo not shown) [Astaxanthin, astaxanthin], the “astaxanthin levels Max” value [1] was 4.89, 4.89 ng/mL, the “astaxanthin levels Mean (SD)” value [1] was 4.89 (0.00) ng/mL and the “astaxanthin levels Median” value [1] was 4.89 ng/mL. For the same compound, the “astaxanthin levels Min” value [1] was 4.89, 4.89 ng/mL, the “astaxanthin levels Max” value (Group X 12 mg BID, V6 Week 12) was 1282 ng/mL and the “astaxanthin levels Min” value (Group X 12 mg BID, V6 Week 12) was 190.9 ng/mL. For the same compound, the “astaxanthin levels Max” value [2] was 221.0 ng/mL, the “astaxanthin levels Mean (SD)” value [2] was 17.12 (49.44) ng/mL and the “astaxanthin levels Median” value [2] was 4.89 ng/mL. The “astaxanthin levels Min” value [2] was 4.89 ng/mL, the “astaxanthin levels Max” value (Group Z 48 mg BID, V6 Week 12) was 7030 ng/mL and the “astaxanthin levels Min” value (Group Z 48 mg BID, V6 Week 12) was 409.0 ng/mL. It also gave a concentration at 12 week (12 mg, Group X 12 mg BID, V6 Week 12, read-out: astaxanthin levels Mean (SD)) of 785 ng/mL, a concentration at 12 week (12 mg, Group X 12 mg BID, V6 Week 12, read-out: astaxanthin levels Median) of 790 ng/mL and a concentration at 12 week (48 mg, Group Z 48 mg BID, V6 Week 12, read-out: astaxanthin levels Mean (SD)) of 2590 ng/mL. The concentration at 12 week (48 mg, Group Z 48 mg BID, V6 Week 12, read-out: astaxanthin levels Median) was 2180 ng/mL.
